Laboratory results: patent US8822754B2, “Ecdysone receptor-based inducible gene expression system” (Intrexon Corporation, priority 2000, dated 2014)

What was measured:
CfEcR/RXR-based switch = assay: Luciferase reporter assay of truncated CfEcR and MmRXR receptor pairs in NIH3T3 cells (Example 2); assay type: cell-based, Choristoneura fumiferana; conditions: NIH3T3 cells, 0, 1, 5 or 25 uM ligand, 48 hr; FIGS. 11-14
Description: Briefly, polynucleotides encoding EcR or RXR receptors were truncated at the junctions of A/B, C, D, E and F domains and fused to either a GAL4 DNA binding domain encoding polynucleotide (SEQ ID NO: 41) for CfEcR, or a VP16 activation domain encoding polynucleotide (SEQ ID NO: 45) for MmRXR as described in Example 1. The resulting receptor truncation/fusion polypeptides were assayed in NIH3T3 cells. Plasmid pFRLUC (Stratagene) encoding a luciferase polypeptide was used as a reporter gene construct and pTKRL (Promega) encoding a Renilla luciferase polypeptide under the control of the constitutive TK promoter was used to normalize the transfections as described above. The analysis was performed in triplicates and mean luciferase counts were determined as described above.
Gene expression cassettes comprising polynucleotides encoding either full length or truncated CfEcR polypeptides fused to a GALA. […] The cells were harvested, lysed and luciferase reporter activity was measured in the cell lysates. […]

GAL4CfEcRVP16 [1] = assay: Transactivation of reporter genes through switch 1.6 in 293 cells; assay type: cell-based, Choristoneura fumiferana; conditions: switch 1.6 GAL4CfEcRVP16, pGAL4RELuc
Description: (§1) This construct was prepared so that both the GAL4 DNABD and the VP16AD were placed on the same molecule. GAL4DNABD (SEQ ID NO: 41) and VP16AD (SEQ ID NO: 45) were fused to CfEcRDEF (SEQ ID NO: 3) at N- and C-termini respectively.
The same procedures described for CHO were followed for 293 cells except that the cells were plated in biocoated plates to avoid clumping.
(§2) Cells were harvested 24-48 hr after adding ligands. […] Twenty μl of lysate was assayed.

GAL4CfEcRVP16 [2] = assay: Transactivation of reporter genes through switch 1.6 in 3T3 cells; assay type: cell-based, Choristoneura fumiferana; conditions: switch 1.6 GAL4CfEcRVP16, pGAL4RELuc
Description: as §1
(§3) The cells were plated when they reached 50% confluency.
as §2

GAL4RXR + VP16DmEcR = molecular target: T1, GAL4RXR + VP16DmEcR (Drosophila melanogaster, UniProt P34021); assay: Transactivation of reporter genes through switch 1.4 in 3T3 cells; assay type: cell-based; conditions: switch 1.4 GAL4RXR + VP16DmEcR, pGAL4RELuc
T1 sequence (P34021 254-878): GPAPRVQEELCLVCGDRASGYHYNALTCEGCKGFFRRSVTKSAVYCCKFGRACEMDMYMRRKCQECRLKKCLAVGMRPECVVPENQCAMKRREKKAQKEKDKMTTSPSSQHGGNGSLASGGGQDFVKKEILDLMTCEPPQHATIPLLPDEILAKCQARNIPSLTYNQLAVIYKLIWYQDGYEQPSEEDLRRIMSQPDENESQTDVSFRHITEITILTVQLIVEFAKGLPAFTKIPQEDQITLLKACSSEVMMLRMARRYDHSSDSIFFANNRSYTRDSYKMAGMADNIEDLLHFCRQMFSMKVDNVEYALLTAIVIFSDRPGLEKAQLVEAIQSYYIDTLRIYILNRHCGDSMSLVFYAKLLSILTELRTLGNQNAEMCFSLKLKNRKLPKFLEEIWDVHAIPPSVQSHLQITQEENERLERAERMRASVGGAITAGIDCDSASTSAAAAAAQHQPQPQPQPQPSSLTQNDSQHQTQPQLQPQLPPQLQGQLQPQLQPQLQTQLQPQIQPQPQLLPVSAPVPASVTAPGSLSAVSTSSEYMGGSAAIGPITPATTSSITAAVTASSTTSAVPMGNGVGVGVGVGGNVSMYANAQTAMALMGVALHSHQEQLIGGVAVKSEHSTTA
T1 sequence (P28700 206-467 partner limits assumed): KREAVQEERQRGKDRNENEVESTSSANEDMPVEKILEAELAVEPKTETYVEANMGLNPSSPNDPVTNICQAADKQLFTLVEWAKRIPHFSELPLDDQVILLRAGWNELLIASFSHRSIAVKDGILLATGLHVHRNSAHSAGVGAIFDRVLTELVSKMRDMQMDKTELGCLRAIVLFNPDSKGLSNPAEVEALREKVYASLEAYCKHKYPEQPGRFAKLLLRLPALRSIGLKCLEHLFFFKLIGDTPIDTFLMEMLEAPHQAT
Description: This construct was prepared in the same way as switch 1.3 except CfEcRCDEF was replaced with DmEcRCDEF (SEQ ID NO: 6).
as §3, §2

VP16CfEcR = assay: Transactivation of reporter genes through switch 1.7 in CV1 cells; assay type: cell-based, Choristoneura fumiferana; conditions: switch 1.7 VP16CfEcR, pEcRELuc
Description: Six ecdysone response elements (“EcRE”; SEQ ID NO: 59) from the hsp27 gene were placed upstream of the promoter and a luciferase gene (SEQ ID NO: 57). This switch most probably uses endogenous RXR.
The same procedures described for NIH3T3 cells were followed for CV1 cells
as §2

In the case of `CCc1c(OC)cccc1C(=O)NN(C(=O)c1cc(C)cc(C)c1)C(C)(C)C` [N-(2-ethyl-3-methoxybenzoyl)-N′-(3,5-dimethylbenzoyl)-N′-tert-butylhydrazine], the “sensitivity of the EcR/RXR switch to the ligand” value (CfEcR/RXR-based switch) is reported as “much more sensitive”, the “Mean Fold Activation Through N-(2-ethyl-3-methoxybenzoyl)-N′-(3,5-dimethylbenzoyl)-N′-t-butylhydrazine” value (GAL4CfEcRVP16 [1]) is reported as 3 fold and the “Mean Fold Activation Through N-(2-ethyl-3-methoxybenzoyl)-N′-(3,5-dimethylbenzoyl)-N′-t-butylhydrazine” value (GAL4CfEcRVP16 [2]) is reported as 7 fold. The “Mean Fold Activation Through N-(2-ethyl-3-methoxybenzoyl)-N′-(3,5-dimethylbenzoyl)-N′-t-butylhydrazine” value (GAL4RXR + VP16DmEcR) was 269 fold and the “Mean Fold Activation Through N-(2-ethyl-3-methoxybenzoyl)-N′-(3,5-dimethylbenzoyl)-N′-t-butylhydrazine” value (VP16CfEcR) was 1 fold.
